# Test results reported in patent US12281057B2 (VERTEX PHARMACEUTICALS INCORPORATED, priority 2017, dated 2025).
# Target: truncated form of human NaV 1.8 with full channel activity (Homo sapiens, UniProt Q9Y5Y9)
# Experiment: E-VIPR Assay Method B for detecting and measuring Nav inhibition (HEK cells, membrane potential FRET dyes, electrical stimulation)
# Format: cell-based
# Conditions: HEK cells expressing human NaV 1.8, Table 20B, read-out: Nav 1.8 MedChem Optical Assay EVIPR Assay Method B HS IC50
# Text: [formula] where X is the ratio response of the test compound. […] E-VIPR Assay Method B for Detecting and Measuring Nav Inhibition Properties Sodium ion channels are voltage-dependent proteins that can be activated by inducing membrane voltage changes by applying electric fields. The electrical stimulation instrument and methods of use, referred to as E-VIPR, are described in International Publication No. WO 2002/008748 A3 and C.-J. Huang et al. Characterization of voltage-gated sodium channel blockers by electrical stimulation and fluorescence detection of membrane potential, 24 Nature Biotech. 439-46 (2006), both of which are incorporated by reference in their entirety. The instrument comprises a microtiter plate handler, an optical system for exciting the coumarin dye while simultaneously recording the coumarin and oxonol emissions, a waveform generator, a current- or voltage-controlled amplifier, and parallel electrode pairs that are inserted into assay plate wells. Under integrated computer control, this instrument passes user-programmed electrical stimulus protocols to cells within the wells of the microtiter plate. […] Sigma #F4135), 1% NEAA (Non-Essential Amino Acids, Life Tech #11140), 1% HEPES (Life Tech #15630), 1% Pen-Strep (Penicillin-Streptomycin; […] Cells were expanded in vented cap flasks, with 95% humidity and 5% CO2. Reagents and Stock Solutions: • 100 mg/mL Pluronic F-127 (Sigma #P2443), in dry DMSO • Compound Plates: […] 5% KIR 2.1 Bacmam virus (produced in-house), prepared as described in Section 3.3 of J. A. Fornwald et al., Gene Expression in Mammalian Cells Using BacMam, a Modified Baculovirus System, 1350 Methods in Molecular Biology 95-116 (2016), the entire contents of which are incorporated by reference. • 5 mM DiSBAC6(3) (a voltage sensitive oxonol acceptor) (Aurora #00-100-010) in dry DMSO • 5 mM CC2-DMPE (a membrane-bound coumarin phospholipid FRET donor) (Aurora #00-100-008) in dry DMSO • 89 mM VABSC-1 in H2O. […] The solution was made by adding 10% Pluronic F127 stock equal to combined volumes of CC2-DMPE and DiSBAC6(3). The order of preparation was first mix Pluronic and CC2-DMPE, then add DiSBAC6(3), then while vortexing add Bath1/β-Cyclodextrin. […] Assay Protocol: […] Final DMSO concentration for all wells in the assay was 0.625% (0.75% DMSO was supplemented to the Compound Loading Buffer for a final DMSO concentration of 0.625%). 2) Hexyl Dye Solution was prepared. 3) Cell plates were prepared. On the day of the assay, the media was aspirated, and the cells were washed three times with 80 μL of Bath-1 buffer, maintaining 25 μL residual volume in each well. 4) 25 μL per well of Hexyl Dye Solution was dispensed into the cell plates. The cells were incubated for 20 minutes at room temp or ambient conditions in darkness. 5) 80 μL per well of Compound Loading Buffer was dispensed into compound plates. […] The mixture was incubated for 30 minutes at room temp/ambient conditions. […] A pre-stimulus recording was performed for 0.5 seconds to obtain the un-stimulated intensities baseline. The stimulatory waveform was followed by 0.5 seconds of post-stimulation recording to examine the relaxation to the resting state. Data Analysis: Data were analyzed and reported as normalized ratios of emission intensities measured in the 460 nm and 580 nm channels. The response as a function of time was reported as the ratios obtained using the following formula: [formula] The data were further reduced by calculating the initial (Ri) and final (Rf) ratios. These were the average ratio values during part or all of the pre-stimulation period and during sample points during the stimulation period. The fluorescence ratio (Rf/Ri) was then calculated and reported as a function of time. Control responses were obtained by performing assays in the presence of the positive control, and in the absence of pharmacological agents (DMSO vehicle negative control). Responses to the negative (N) and positive (P) controls were calculated as above. […]
# truncated form of human NaV 1.8 with full channel activity, sequence (Q9Y5Y9 126-1722 limits assumed): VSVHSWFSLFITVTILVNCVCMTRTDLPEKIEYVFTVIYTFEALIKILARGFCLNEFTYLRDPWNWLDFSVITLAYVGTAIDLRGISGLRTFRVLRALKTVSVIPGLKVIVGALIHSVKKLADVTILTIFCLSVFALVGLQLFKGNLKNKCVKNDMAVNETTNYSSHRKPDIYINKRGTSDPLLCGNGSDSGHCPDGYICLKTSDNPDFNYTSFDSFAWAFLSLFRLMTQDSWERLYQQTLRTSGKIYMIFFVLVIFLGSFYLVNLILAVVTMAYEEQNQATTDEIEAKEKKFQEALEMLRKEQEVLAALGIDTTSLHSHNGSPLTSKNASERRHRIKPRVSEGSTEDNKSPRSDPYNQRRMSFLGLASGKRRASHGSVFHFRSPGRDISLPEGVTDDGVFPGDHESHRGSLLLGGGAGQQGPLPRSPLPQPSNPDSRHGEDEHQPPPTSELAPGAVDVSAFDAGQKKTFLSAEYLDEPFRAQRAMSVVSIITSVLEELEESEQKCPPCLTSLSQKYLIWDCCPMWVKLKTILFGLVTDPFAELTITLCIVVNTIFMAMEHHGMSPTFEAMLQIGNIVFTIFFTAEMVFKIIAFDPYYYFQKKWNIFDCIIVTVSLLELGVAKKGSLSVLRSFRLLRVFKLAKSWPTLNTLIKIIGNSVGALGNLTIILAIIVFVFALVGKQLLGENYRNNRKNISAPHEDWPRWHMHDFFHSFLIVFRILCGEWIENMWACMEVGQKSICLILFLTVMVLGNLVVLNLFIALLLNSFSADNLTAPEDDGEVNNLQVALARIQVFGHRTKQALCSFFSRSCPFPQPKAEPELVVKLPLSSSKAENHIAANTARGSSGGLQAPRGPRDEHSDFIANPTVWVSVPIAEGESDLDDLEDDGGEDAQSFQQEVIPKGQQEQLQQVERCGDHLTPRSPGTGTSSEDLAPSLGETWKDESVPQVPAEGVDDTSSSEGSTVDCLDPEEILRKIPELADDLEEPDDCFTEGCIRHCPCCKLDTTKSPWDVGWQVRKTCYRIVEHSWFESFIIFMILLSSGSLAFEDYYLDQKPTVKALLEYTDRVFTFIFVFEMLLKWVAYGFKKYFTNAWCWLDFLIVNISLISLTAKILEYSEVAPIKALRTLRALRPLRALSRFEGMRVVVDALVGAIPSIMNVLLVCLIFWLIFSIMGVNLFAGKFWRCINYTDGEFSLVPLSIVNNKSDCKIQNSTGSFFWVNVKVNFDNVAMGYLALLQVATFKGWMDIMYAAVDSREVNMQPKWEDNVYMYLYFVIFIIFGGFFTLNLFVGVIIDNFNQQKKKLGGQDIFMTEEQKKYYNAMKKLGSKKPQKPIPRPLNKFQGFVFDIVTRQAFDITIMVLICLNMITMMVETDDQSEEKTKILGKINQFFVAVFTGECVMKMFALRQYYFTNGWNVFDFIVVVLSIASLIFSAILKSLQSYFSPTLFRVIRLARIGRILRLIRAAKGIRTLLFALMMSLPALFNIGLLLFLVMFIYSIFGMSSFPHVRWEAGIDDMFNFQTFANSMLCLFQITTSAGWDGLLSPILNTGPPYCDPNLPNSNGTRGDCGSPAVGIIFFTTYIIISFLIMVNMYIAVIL
row,Structure (SMILES),IC50 [nM]
1,"COc1cc(Cl)ccc1Oc1cc(C(F)(F)C(F)(F)F)ccc1C(=O)Nc1cccc(C(N)=O)c1 [Compound 247, N-(3-carbamoylphenyl)-2-(4-chloro-2-methoxyphenoxy)-4-(1,1,2,2,2-pentafluoroethyl)benzamide]",33
2,"COc1cc(F)ccc1Oc1cc(C(F)(F)C(F)(F)F)ccc1C(=O)Nc1cccc(C(N)=O)c1 [Compound 248, N-(3-carbamoylphenyl)-2-(4-fluoro-2-methoxyphenoxy)-4-(1,1,2,2,2-pentafluoroethyl)benzamide]",11
3,"NC(=O)c1cccc(NC(=O)c2ccc(C(F)(F)C(F)(F)F)cc2Oc2ccc(F)cc2)c1 [Compound 249, N-(3-carbamoylphenyl)-2-(4-fluorophenoxy)-4-(1,1,2,2,2-pentafluoroethyl)benzamide]",60
4,"COc1ccc(Oc2cc(C(F)(F)C(F)(F)F)ccc2C(=O)Nc2cccc(C(N)=O)c2)cc1F [Compound 250, N-(3-carbamoylphenyl)-2-(3-fluoro-4-methoxyphenoxy)-4-(1,1,2,2,2-pentafluoroethyl)benzamide]",65
5,"COc1ccc(Oc2cc(C(F)(F)C(F)(F)F)ccc2C(=O)Nc2cccc(C(N)=O)c2)c(Cl)c1 [Compound 251, N-(3-carbamoylphenyl)-2-(2-chloro-4-methoxyphenoxy)-4-(1,1,2,2,2-pentafluoroethyl)benzamide]",91
6,"COc1ccc(Oc2cc(C(F)(F)C(F)(F)F)ccc2C(=O)Nc2cccc(C(N)=O)c2)c(OC)c1 [Compound 252, N-(3-carbamoylphenyl)-2-(2,4-dimethoxyphenoxy)-4-(1,1,2,2,2-pentafluoroethyl)benzamide]",36
7,"COc1ccc(NC(=O)c2c(Oc3ccc(F)cc3Cl)cccc2C(F)(F)F)cc1C(N)=O [Compound 253, N-(3-carbamoyl-4-methoxyphenyl)-2-(2-chloro-4-fluorophenoxy)-6-(trifluoromethyl)benzamide]",880
8,"NC(=O)c1cc(NC(=O)c2c(Oc3ccc(F)cc3Cl)cccc2C(F)(F)F)ccc1Cl [Compound 254, N-(3-carbamoyl-4-chlorophenyl)-2-(2-chloro-4-fluorophenoxy)-6-(trifluoromethyl)benzamide]",260
9,"Cc1ccc(C(N)=O)cc1NC(=O)c1c(Oc2ccc(F)cc2Cl)cccc1C(F)(F)F [Compound 255, N-(5-carbamoyl-2-methylphenyl)-2-(2-chloro-4-fluorophenoxy)-6-(trifluoromethyl)benzamide]",7200
10,"NC(=O)c1ccc(NC(=O)c2c(Oc3ccc(F)cc3Cl)cccc2C(F)(F)F)cn1 [Compound 256, 5-[[2-(2-chloro-4-fluoro-phenoxy)-6-(trifluoromethyl)benzoyl]amino]pyridine-2-carboxamide]",550
11,"NC(=O)c1cccc(NC(=O)c2c(Oc3ccc(F)cc3)cccc2C(F)(F)F)c1 [Compound 257, N-(3-carbamoylphenyl)-2-(4-fluorophenoxy)-6-(trifluoromethyl)benzamide]",415
12,"Cc1cc(F)ccc1Oc1cccc(C(F)(F)F)c1C(=O)Nc1cccc(C(N)=O)c1 [Compound 258, N-(3-carbamoylphenyl)-2-(4-fluoro-2-methylphenoxy)-6-(trifluoromethyl)benzamide]",85
13,"COc1cc(F)ccc1Oc1cccc(C(F)(F)F)c1C(=O)Nc1cccc(C(N)=O)c1 [Compound 259, N-(3-carbamoylphenyl)-2-(4-fluoro-2-methoxyphenoxy)-6-(trifluoromethyl)benzamide]",65
14,"NC(=O)c1cccc(NC(=O)c2c(Oc3ccc(F)cc3Cl)cccc2C(F)(F)F)c1 [Compound 260, N-(3-carbamoylphenyl)-2-(2-chloro-4-fluorophenoxy)-6-(trifluoromethyl)benzamide]",166
15,"CC(C)(C)c1ccc(C(=O)Nc2cncc(C(N)=O)c2)c(Oc2ccc(C(F)(F)F)nc2)c1 [Compound 261, 5-(4-(tert-butyl)-2-((6-(trifluoromethyl)pyridin-3-yl)oxy)benzamido)nicotinamide]",1200
16,CC(C)(C)c1ccc(C(=O)Nc2cc(C(N)=O)ccn2)c(Oc2ccc(C(F)(F)F)nc2)c1 [Compound 262],> 25000
17,"CC(C)(C)c1ccc(C(=O)Nc2ccnc(C(N)=O)c2)c(Oc2ccc(C(F)(F)F)nc2)c1 [Compound 266, 4-(4-(tert-butyl)-2-((6-(trifluoromethyl)pyridin-3-yl)oxy)benzamido)picolinamide]",17000
18,"Cc1cc(F)ccc1Oc1cc(Cl)c(Cl)cc1C(=O)Nc1cccc(C(N)=O)c1 [Compound 267, N-(3-carbamoylphenyl)-4,5-dichloro-2-(4-fluoro-2-methyl-phenoxy)benzamide]",7
19,"NC(=O)c1cccc(NC(=O)c2cc(Cl)c(Cl)cc2Oc2ccc(F)cc2)c1 [Compound 268, N-(3-carbamoylphenyl)-4,5-dichloro-2-(4-fluorophenoxy)benzamide]",14
20,"COc1ccc(Oc2cc(Cl)c(Cl)cc2C(=O)Nc2cccc(C(N)=O)c2)c(OC)c1 [Compound 269, N-(3-carbamoylphenyl)-4,5-dichloro-2-(2,4-dimethoxyphenoxy)benzamide]",9
21,"COc1cc(F)ccc1Oc1cc(Cl)c(Cl)cc1C(=O)Nc1cccc(C(N)=O)c1 [Compound 270, N-(3-carbamoylphenyl)-4,5-dichloro-2-(4-fluoro-2-methoxy-phenoxy)benzamide]",9
22,"COc1ccc(Oc2cc(Cl)c(Cl)cc2C(=O)Nc2cccc(C(N)=O)c2)cc1F [Compound 271, N-(3-carbamoylphenyl)-4,5-dichloro-2-(3-fluoro-4-methoxy-phenoxy)benzamide]",20
23,"NC(=O)c1cccc(NC(=O)c2cc(Cl)c(Cl)cc2Oc2ccc(OC(F)(F)F)cc2)c1 [Compound 272, N-(3-carbamoylphenyl)-4,5-dichloro-2-[4-(trifluoromethoxy)phenoxy]benzamide]",8
24,"COc1ccc(Oc2cc(Cl)c(Cl)cc2C(=O)Nc2cccc(C(N)=O)c2)c(F)c1 [Compound 273, N-(3-carbamoylphenyl)-4,5-dichloro-2-(2-fluoro-4-methoxy-phenoxy)benzamide]",30
25,"COc1cc(F)ccc1Oc1cc(Cl)c(Cl)cc1C(=O)Nc1ccc(C(N)=O)cc1 [Compound 274, N-(4-carbamoylphenyl)-4,5-dichloro-2-(4-fluoro-2-methoxy-phenoxy)benzamide]",2
26,"Cc1cccc(Oc2ccc(F)cc2Cl)c1C(=O)Nc1cccc(C(N)=O)c1 [Compound 275, N-(3-carbamoylphenyl)-2-(2-chloro-4-fluoro-phenoxy)-6-methyl-benzamide]",165
27,"NC(=O)c1cccc(NC(=O)c2cc(C(F)(F)F)ccc2Oc2ccc(F)cc2)c1 [Compound 276, N-(3-carbamoylphenyl)-2-(4-fluorophenoxy)-5-(trifluoromethyl)benzamide]",98
28,"NC(=O)c1cccc(NC(=O)c2cc(C(F)(F)F)ccc2Oc2ccccc2)c1 [Compound 277, N-(3-carbamoylphenyl)-2-phenoxy-5-(trifluoromethyl)benzamide]",250
29,"COc1c(F)cccc1Oc1ccc(C(F)(F)F)cc1C(=O)Nc1cccc(C(N)=O)c1 [Compound 278, N-(3-carbamoylphenyl)-2-(3-fluoro-2-methoxyphenoxy)-5-(trifluoromethyl)benzamide]",21
30,"COc1ccc(Oc2ccc(C(F)(F)F)cc2C(=O)Nc2cccc(C(N)=O)c2)c(Cl)c1 [Compound 279, N-(3-carbamoylphenyl)-2-(2-chloro-4-methoxyphenoxy)-5-(trifluoromethyl)benzamide]",56
